Results published in ChEMBL document CHEMBL1130094, “Structure-activity relationships for a novel series of pyrido[2,3-d]pyrimidine tyrosine kinase inhibitors” (J Med Chem, 1997).

Columns and labels:
Insulin receptor = Insulin receptor (Homo sapiens, UniProt P06213); experiment: Inhibition of insulin receptor (InsR) tyrosine kinase
[1] = biological target: Proto-oncogene tyrosine-protein kinase Src (Homo sapiens, UniProt P12931); experiment: Inhibition of C-src tyrosine kinase
[2] = biological target: T1, Platelet-derived growth factor receptor (PDGFr) (Rattus norvegicus, UniProt P20786+Q05030); experiment: Inhibition of Platelet-derived growth factor receptor (PDGFr) tyrosine kinase in rat aortic vascular smooth muscle cells (RAVSMCs).
[3] = biological target: T1, Platelet-derived growth factor receptor (PDGFr); experiment: Inhibition of platelet derived growth factor (PDGF) stimulated PDGF-receptor autophosphorylation in rat aortic vascular smooth muscle cells (RAVSMCs)
[4] = biological target: T2, Fibroblast growth factor receptor (Homo sapiens, UniProt P22607+P11362+P22455+P21802); experiment: Inhibition of Fibroblast growth factor receptor (FGFr) tyrosine kinase; type: protein assay
[5] = biological target: T3, Epidermal growth factor receptor (Homo sapiens, UniProt P00533); experiment: Inhibition of Epidermal growth factor receptor (EGFr) tyrosine kinase
[6] = Inhibition of vascular smooth muscle cell (VSMC) proliferation at day 8; type: functional; details: Rattus norvegicus, 192 h
[7] = biological target: T3, Epidermal growth factor receptor; experiment: Inhibition of epidermal growth factor receptor (EGFr) tyrosine kinase
[8] = biological target: T2, Fibroblast growth factor receptor; experiment: Inhibition of fibroblast growth factor receptor (FGFr) tyrosine kinase; type: protein assay
[9] = The half life in rat plasma after intravenous administration; type: ADME, organism-based

Proto-oncogene tyrosine-protein kinase Src, sequence (P12931 2-536 limits assumed): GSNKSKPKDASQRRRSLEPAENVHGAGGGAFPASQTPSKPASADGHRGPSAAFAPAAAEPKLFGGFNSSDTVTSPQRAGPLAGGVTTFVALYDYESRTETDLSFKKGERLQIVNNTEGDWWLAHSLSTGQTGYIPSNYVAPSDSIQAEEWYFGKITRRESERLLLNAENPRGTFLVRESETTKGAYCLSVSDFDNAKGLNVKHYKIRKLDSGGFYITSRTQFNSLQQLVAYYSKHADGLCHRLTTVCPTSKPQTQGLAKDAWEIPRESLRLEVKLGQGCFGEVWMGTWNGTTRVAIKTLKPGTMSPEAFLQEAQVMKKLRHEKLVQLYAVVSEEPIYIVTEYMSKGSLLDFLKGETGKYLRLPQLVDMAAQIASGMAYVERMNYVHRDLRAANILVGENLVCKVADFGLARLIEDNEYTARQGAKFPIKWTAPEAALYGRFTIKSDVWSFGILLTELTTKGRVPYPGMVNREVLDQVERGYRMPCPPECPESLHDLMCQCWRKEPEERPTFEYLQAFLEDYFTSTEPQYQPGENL
Insulin receptor, sequence (P06213 28-758 limits assumed): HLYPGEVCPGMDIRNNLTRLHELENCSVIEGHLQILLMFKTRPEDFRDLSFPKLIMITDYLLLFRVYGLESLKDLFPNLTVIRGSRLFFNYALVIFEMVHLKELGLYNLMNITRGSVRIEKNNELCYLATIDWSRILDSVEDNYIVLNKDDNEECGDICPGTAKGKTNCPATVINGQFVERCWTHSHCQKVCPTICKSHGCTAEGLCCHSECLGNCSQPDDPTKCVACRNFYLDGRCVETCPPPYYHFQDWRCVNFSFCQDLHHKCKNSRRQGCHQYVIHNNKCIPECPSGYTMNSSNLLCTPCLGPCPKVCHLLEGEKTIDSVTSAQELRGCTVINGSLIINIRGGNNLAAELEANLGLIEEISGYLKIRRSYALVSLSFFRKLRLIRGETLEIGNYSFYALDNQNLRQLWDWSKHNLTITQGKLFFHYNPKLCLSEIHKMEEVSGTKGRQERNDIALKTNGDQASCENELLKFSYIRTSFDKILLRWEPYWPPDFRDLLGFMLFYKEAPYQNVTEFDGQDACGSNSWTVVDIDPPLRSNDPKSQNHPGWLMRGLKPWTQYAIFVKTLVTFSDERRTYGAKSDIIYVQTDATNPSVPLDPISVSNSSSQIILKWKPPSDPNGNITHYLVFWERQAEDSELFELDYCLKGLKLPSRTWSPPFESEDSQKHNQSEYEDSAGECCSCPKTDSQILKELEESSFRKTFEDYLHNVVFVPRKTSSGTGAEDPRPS
Insulin receptor, sequence (P06213 763-1382 limits assumed): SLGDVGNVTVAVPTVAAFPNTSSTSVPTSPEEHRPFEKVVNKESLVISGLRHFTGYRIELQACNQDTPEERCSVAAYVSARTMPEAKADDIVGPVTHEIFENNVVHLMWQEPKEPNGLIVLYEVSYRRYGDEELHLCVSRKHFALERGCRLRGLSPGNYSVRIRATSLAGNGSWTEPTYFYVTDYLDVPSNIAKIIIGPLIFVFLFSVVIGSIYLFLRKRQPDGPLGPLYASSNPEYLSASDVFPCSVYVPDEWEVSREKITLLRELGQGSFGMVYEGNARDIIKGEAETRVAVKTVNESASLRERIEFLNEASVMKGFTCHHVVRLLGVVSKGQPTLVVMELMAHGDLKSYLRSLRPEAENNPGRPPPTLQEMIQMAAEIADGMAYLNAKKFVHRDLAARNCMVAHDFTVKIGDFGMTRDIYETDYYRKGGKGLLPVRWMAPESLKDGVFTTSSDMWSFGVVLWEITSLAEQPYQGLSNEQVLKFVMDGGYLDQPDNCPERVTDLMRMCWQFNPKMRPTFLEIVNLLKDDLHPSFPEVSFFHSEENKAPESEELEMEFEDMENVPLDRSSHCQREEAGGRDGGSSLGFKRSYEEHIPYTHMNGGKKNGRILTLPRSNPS
T3 sequence (P00533 whole entry): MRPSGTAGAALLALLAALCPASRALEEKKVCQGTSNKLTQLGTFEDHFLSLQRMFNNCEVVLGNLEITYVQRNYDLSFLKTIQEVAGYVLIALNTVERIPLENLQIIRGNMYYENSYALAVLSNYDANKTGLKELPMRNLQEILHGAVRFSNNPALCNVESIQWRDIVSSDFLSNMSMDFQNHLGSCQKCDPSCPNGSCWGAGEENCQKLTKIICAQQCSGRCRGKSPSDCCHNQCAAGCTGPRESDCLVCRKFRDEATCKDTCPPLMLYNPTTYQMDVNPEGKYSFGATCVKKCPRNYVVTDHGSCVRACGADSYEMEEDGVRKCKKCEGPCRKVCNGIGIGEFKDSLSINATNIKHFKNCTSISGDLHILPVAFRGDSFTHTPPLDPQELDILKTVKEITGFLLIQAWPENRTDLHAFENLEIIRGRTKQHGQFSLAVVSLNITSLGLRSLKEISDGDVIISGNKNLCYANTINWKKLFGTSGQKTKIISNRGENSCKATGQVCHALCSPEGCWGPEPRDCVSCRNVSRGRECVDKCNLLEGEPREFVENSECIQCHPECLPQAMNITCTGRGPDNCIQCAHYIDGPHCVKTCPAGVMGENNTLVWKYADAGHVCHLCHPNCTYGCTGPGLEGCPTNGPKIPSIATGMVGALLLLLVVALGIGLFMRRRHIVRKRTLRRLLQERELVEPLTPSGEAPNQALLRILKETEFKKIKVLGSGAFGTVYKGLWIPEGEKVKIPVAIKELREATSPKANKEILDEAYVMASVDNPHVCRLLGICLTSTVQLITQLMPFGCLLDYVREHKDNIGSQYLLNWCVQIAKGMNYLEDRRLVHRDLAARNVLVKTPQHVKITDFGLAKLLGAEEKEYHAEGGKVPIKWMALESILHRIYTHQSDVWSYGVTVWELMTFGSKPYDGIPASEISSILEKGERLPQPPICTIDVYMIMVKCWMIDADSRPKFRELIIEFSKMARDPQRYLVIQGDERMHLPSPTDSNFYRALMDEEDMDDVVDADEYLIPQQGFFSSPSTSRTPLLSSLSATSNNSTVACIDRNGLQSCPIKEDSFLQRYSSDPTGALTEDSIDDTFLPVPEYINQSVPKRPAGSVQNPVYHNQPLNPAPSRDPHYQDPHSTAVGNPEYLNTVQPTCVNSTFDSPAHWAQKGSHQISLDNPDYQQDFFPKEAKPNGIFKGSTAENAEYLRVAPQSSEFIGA

Compound	IC50 (Insulin receptor) [nM]	IC50 [1] [nM]	IC50 [2] [nM]	IC50 [3] [nM]	IC50 [4] [nM]	IC50 [5] [nM]	IC50 [7] [nM]	IC50 [8] [nM]	half-life [9] [h]	IC50 [6] [nM]
Cc1cc(C)c(C)c(-c2cc3cnc(N)nc3nc2NC(=O)NC(C)(C)C)c1C	> 50000	> 50000	> 50000	> 50000						
Cc1cc(C)c(C)c(-c2cc3cnc(NCCCN4CCN(C)CC4)nc3nc2NC(=O)NC(C)(C)C)c1C	> 50000	2200	> 50000	4300	140	7000				
Cc1cccc(C)c1-c1cc2cnc(N)nc2nc1NC(=O)NC(C)(C)C	> 50000				400	610				
CC(C)(C)NC(=O)Nc1nc2nc(N)ncc2cc1-c1c(Cl)cccc1Cl	> 50000	220	1110	630	130					
CC(C)(C)NC(=O)Nc1nc2nc(N)ncc2cc1-c1ccccc1	> 50000	> 50000	4670				5530	3710		
COc1cc(OC)cc(-c2cc3cnc(N)nc3nc2NC(=O)NC(C)(C)C)c1					60					
CCNC(=O)Nc1nc2nc(N)ncc2cc1-c1c(Cl)cccc1Cl	> 50000		1300	3730	130	1360				

Further lines, with some results ahead:

IC50 (Insulin receptor) [nM]	IC50 [1] [nM]	IC50 [2] [nM]	IC50 [3] [nM]	IC50 [4] [nM]	IC50 [5] [nM]	IC50 [7] [nM]	IC50 [8] [nM]	half-life [9] [h]	Compound	IC50 [6] [nM]
> 50000		660	1800	82	6200				CCN(CC)CCCNc1ncc2cc(-c3c(Cl)cccc3Cl)c(NC(=O)NC(C)(C)C)nc2n1	
> 50000	44	310	450						CCN(CC)CCCCNc1ncc2cc(-c3c(Cl)cccc3Cl)c(NC(=O)NC(C)(C)C)nc2n1	300
> 50000								2.69	CN1CCN(CCCNc2ncc3cc(-c4c(Cl)cccc4Cl)c(NC(=O)NC(C)(C)C)nc3n2)CC1	
		190	250						CCNC(=O)Nc1nc2nc(NCCCCN(CC)CC)ncc2cc1-c1c(Cl)cccc1Cl	
